In US11708283B2, “Metal-chelating compositions and their use in methods of removing or inhibiting barium scale” (CORNELL UNIVERSITY, priority 2018, dated 2023):

Tests used:
[1] = Recovery and reuse of macropa for BaSO4 dissolution
Method: The capacity for recovery and reuse of macropa post-BaSO4 dissolution was assessed qualitatively. FIG. 7 schematically depicts a process for ligand recovery and reuse. A solution of macropa-dissolved BaSO4 was acidified to release the Ba^2+ from the ligand as BaSO4. After filtration of the precipitated BaSO4 and basification of the solution, the recovered ligand was successfully reused for another cycle of BaSO4 dissolution. More specifically, a sample of macropa-dissolved BaSO4 (9.66 mM macropa, 8.74 mM Ba(NO3)2, 26.04 mM Na2SO4) was acidified to pH 1 with concentrated HCl to protonate the ligand, inducing Ba^2+ decomplexation and precipitation as BaSO4. The macropa solution was isolated by filtration, basified to pH 8 with 2 M NaOH, and combined with another portion of BaSO4. Within 40 minutes, no visible precipitate remained in the vial, signaling that the recycled macropa dissolved all the BaSO4.
In other experiments, an initial solution of macropa-dissolved BaSO4 was prepared by stirring at 450 RPM a suspension containing BaSO4 (8.74 mM Ba(NO3)2; 26.04 mM Na2SO4), macropa (9.66 mM), and 2M NaOH (35 μL) in 1M NaHCO3 (326 μL). The final volume was 1035 μL and the pH was 8. […] The solution was adjusted to pH 1 (by litmus paper) by adding concentrated HCl (3 drops). The resultant suspension was stirred for 10 minutes and then filtered through a nylon syringe filter (0.22 μm). The syringe filter was rinsed with 0.1 M HCl (2×100 μL) to facilitate full recovery of the ligand. The pH of the filtrate was carefully adjusted back to pH 8 (by litmus paper) with 2 M NaOH. To this recovered solution of macropa was added another portion of BaSO4 (0.009 mmol BaNO3, 0.027 mmol Na2SO4). The suspension was stirred at 450 RPM and RT. The dissolution of BaSO4 was monitored visually until all of the BaSO4 was dissolved, marking the completion of a full cycle of ligand recovery and reuse. Another cycle was then initiated via the addition of concentrated HCl to the solution. A total of five cycles were performed and the time to full dissolution of BaSO4 was recorded. […] The precipitate may be attributed to a small amount of BaSO4 that remains undissolved as a consequence of ligand loss over time, which occurs because aliquots of the solution are removed to assess the pH during the recovery and reuse process.

[2] = Aqueous solubility of ligand (stock solution preparation); assay type: physicochemical; details: stock solution could not be prepared
Method: Stock solutions of macropa and macropaquin were prepared in H2O. […] The exact ligand concentrations were determined from the potentiometric titration curves with KOH. Protonation equilibria of macropa^2− and macropaquin^2− were determined by adding standardized KOH to a solution (20 mL) containing ligand (˜0.02 mmol), 0.1 M HCl (0.1 mmol), and 1 M KCl (1.9 mmol). The titration method employed a 0.1 mV/min drift limit with a maximum wait time of 90 sec between addition of base and measurement. At least 70 data points were collected over the pH range of 2.5-10.5 (macropa) or 2.5-11.3 (macropaquin). The protonation constants, defined in Eq. 1, were calculated from the average of at least 4 independent titrations using the appropriate software.

Compound: O=C(O)c1cccc(CN2CCOCCOCCN(Cc3cccc(C(=O)O)n3)CCOCCOCC2)n1 [macropa, 6,6-((1,4,10,13-tetraoxa-7,16-diazacyclooctadecane-7,16-diyl)bis(methylene))dipicolinic acid]
- time to complete dissolution of BaSO4 (initial solution) ([1]; 9.66 mM macropa, 8.74 mM Ba(NO3)2, 26.04 mM Na2SO4, pH 8): 17 min
- time until no visible BaSO4 precipitate remained with recycled ligand ([1]; first reuse, pH 8): ≤ 40 min
- efficacy on reuse four more times ([1]; ligand recovered and reused): negligible loss in efficacy or speed of dissolution
- BaSO4 dissolution during the 4th and 5th cycles ([1]; recovery and reuse cycles): dissolution of most of the BaSO4 was rapidly achieved within the first hour

Compound: O=S(=O)(O)c1ccc(O)c2nc(CN3CCOCCOCCN(Cc4ccc5c(S(=O)(=O)O)ccc(O)c5n4)CCOCCOCC3)ccc12 [macroquin-SO3, 2,2′-((1,4,10,13-tetraoxa-7,16-diazacyclooctadecane-7,16-diyl)bis(methylene))bis(8-hydroxyquinoline-5-sulfonic acid)]
- aqueous solubility [2]: poor aqueous solubility
